In US7598418B2, “Amide derivatives” (Institute of Medicinal Molecular Design, Inc., priority 2002, dated 2009):

Tested on: Jurkat cells
Experiment: Jurkat cell proliferation, MTS method: compound alone or combined with bleomycin
Type: cell-based
Parameters: key: ┌++┘ indicates observation of remarkable enhancement; ┌+┘ indicates moderated enhancement
Details: compound plus bleomycin 5 μg/ml or 10 μg/ml, 36 hours, survival rate vs DMSO control
Method: By using aforementioned synthetic compounds, effects on proliferation of Jurkat cells by sole administration and inhibitory effects on cell proliferation by administration in combination with bleomycin were examined. Materials and methods are as follows. Jurkat cells obtained from Dainippon Pharmaceutical Co. Ltd. were inoculated at about 10,000 cells per well in a 96 well culture plate, and incubated in 10% bovine fetal serum (Irvine Scientific) supplemented with RPMI1640 (ICN) medium in 5% CO2 incubator at 37° C. […] 36 hours after the incubation, the number of living cells was counted by the MTS method.
More specifically, 20 μl of CellTiter96™ AQueous One Solution (Promega) was added per one well, and after the cells were incubated for additional one hour, an absorbance at 490 nm was measured by using a microplate reader. The same culture added with DMSO as a solvent at final concentration of 0.25% was used as a control. The number of cells in the control was considered as 100% survival rate, and for each compound, survival rates by sole administration or a combined administration were calculated. […] In the table, ┌++┘ indicates observation of remarkable enhancement, ┌+┘ indicates moderated enhancement.

Row | SMILES | Activity (enhancement of inhibitory effect on cell proliferation in combination with bleomycin)
1 | CC(C)(C)c1ccc(CNS(=O)(=O)c2ccc3c(N)cccc3c2)cc1 [Compound 6-2, 5-Amino-N-[4-(tert-butyl)benzyl]naphthalene-2-sulfonamide] | +
2 | Cc1ccc(S(=O)(=O)Oc2cccc3c(S(=O)(=O)NCC4CCCCC4)cccc23)cc1 [Compound 1-23, N-Cyclohexylmethyl-5-{[(4-methylphenyl)sulfonyl]oxy}naphthalene-1-sulfonamide] | +
3 | Cc1ccc(S(=O)(=O)Oc2cccc3c(S(=O)(=O)NCc4cccc(N)c4)cccc23)cc1 [Compound 1-16, N-(3-Aminobenzyl)-5-{[(4-methylphenyl)sulfonyl]oxy}naphthalene-1-sulfonamide] | +
4 | O=S(=O)(NCc1ccc(C(F)(F)F)cc1)c1cccc2c(O)cccc12 [Compound 2-9, N-[4-(Trifluoromethyl)benzyl]-5-hydroxynaphthalene-1-sulfonamide] | +
5 | CC(=O)Oc1cccc2cc(S(=O)(=O)NCc3ccc(C(F)(F)F)cc3)ccc12 [Compound 3-5, 5-Acetyloxy-N-[4-(trifluoromethyl)benzyl]naphthalene-2-sulfonamide] | +
6 | O=S(=O)(NCc1ccccc1C(F)(F)F)c1cccc2c(O)cccc12 [Compound 2-8, N-[2-(Trifluoromethyl)benzyl]-5-hydroxynaphthalene-1-sulfonamide] | +
7 | Cc1ccc(S(=O)(=O)Oc2cccc3c(S(=O)(=O)NCc4ccc(C)o4)cccc23)cc1 [Compound 1-20, N-[(5-Methylfuran-2-yl)methyl]-5-{[(4-methylphenyl)sulfonyl]oxy}naphthalene-1-sulfonamide] | +
8 | Cc1ccc(S(=O)(=O)Oc2cccc3c(S(=O)(=O)Nc4ccccc4)cccc23)cc1 [Compound 1-24, N-Phenyl-5-{[(4-methylphenyl)sulfonyl]oxy}naphthalene-1-sulfonamide] | ++
9 | Cc1ccc(S(=O)(=O)Oc2cccc3c(S(=O)(=O)NCc4ccccc4)cccc23)cc1 [Compound 1-1, N-Benzyl-5-{[(4-methylphenyl)sulfonyl]oxy}naphthalene-1-sulfonamide] | ++
10 | O=[N+]([O-])c1cccc(CNS(=O)(=O)c2ccc3c(O)cccc3c2)c1 [Compound 4-3, N-(3-Nitrobenzyl)-5-hydroxynaphthalene-2-sulfonamide] | +
11 | O=S(=O)(NCCc1ccccc1)c1cccc2c(O)cccc12 [Compound 2-25, N-(2-Phenethyl)-5-hydroxynaphthalene-1-sulfonamide] | +
12 | O=S(=O)(NCc1cccc2ccccc12)c1ccc2c(O)cccc2c1 [Compound 4-8, N-(1-Naphthylmethyl)-5-hydroxynaphthalene-2-sulfonamide] | +
13 | CC(C)(C)c1ccc(CNS(=O)(=O)c2cccc3c(O)cccc23)cc1 [Compound 2-7, N-[4-(tert-Butyl)benzyl]-5-hydroxynaphthalene-i-sulfonamide] | ++
14 | O=S(=O)(NCc1ccc(C(F)(F)F)cc1)c1ccc2c(O)cccc2c1 [Compound 4-5, N-[4-(Trifluoromethyl)benzyl]-5-hydroxynaphthalene-2-sulfonamide] | +
15 | Cc1ccc(S(=O)(=O)Oc2cccc3c(S(=O)(=O)NCc4ccc5c(c4)OCO5)cccc23)cc1 [Compound 1-15, N-(3,4-Methylenedioxybenzyl)-5-{[(4-methylphenyl)sulfonyl]oxy}naphthalene-1-sulfonamide] | +
16 | Cc1ccc(S(=O)(=O)Oc2cccc3c(S(=O)(=O)NCc4ccc(C(F)(F)F)cc4)cccc23)cc1 [Compound 1-9, N-[4-(Trifluoromethyl)benzyl]-5-{[(4-methylphenyl)sulfonyl]oxy}naphthalene-1-sulfonamide] | ++
17 | Nc1cccc(CNS(=O)(=O)c2ccc3c(O)cccc3c2)c1 [Compound 4-7, N-(3-Aminobenzyl)-5-hydroxynaphthalene-2-sulfonamide] | +
18 | O=S(=O)(NCc1ccccc1)c1ccc2c(O)cccc2c1 [Compound 4-1, N-Benzyl-5-hydroxynaphthalene-2-sulfonamide] | +

Row | SMILES | Activity (enhancement of inhibitory effect on cell proliferation in combination with bleomycin)
19 | Nc1cccc2c(C(=O)NCc3ccccc3)cccc12 [Compound 11-1, 5-Amino-N-benzylnaphthalene-1-carboxamide] | +
20 | Cc1ccc(S(=O)(=O)Oc2cccc3c(S(=O)(=O)NCc4ccccc4C)cccc23)cc1 [Compound 1-6, N-(2-Methylbenzyl)-5-{[(4-methylphenyl)sulfonyl]oxy}naphthalene-1-sulfonamide] | ++
21 | Cc1ccc(S(=O)(=O)Oc2cccc3c(S(=O)(=O)NCc4ccc(N(C)C)cc4)cccc23)cc1 [Compound 1-17, N-[4-(Dimethylamino)benzyl]-5-{[(4-methylphenyl)sulfonyl]oxy}naphthalene-1-sulfonamide] | ++
22 | CC(=O)Oc1cccc2cc(S(=O)(=O)NCc3ccc(C(C)(C)C)cc3)ccc12 [Compound 3-4, 5-Acetyloxy-N-[4-(tert-butyl)benzyl]naphthalene-2-sulfonamide] | ++
23 | Cc1ccc(S(=O)(=O)Oc2cccc3c(S(=O)(=O)NCc4ccc(Cl)cc4Cl)cccc23)cc1 [Compound 1-3, N-(2,4-Dichlorobenzyl)-5-{[(4-methylphenyl)sulfonyl]oxy}naphthalene-1-sulfonamide] | ++
24 | O=S(=O)(NCC1CCCCC1)c1cccc2c(O)cccc12 [Compound 2-23, N-Cyclohexylmethyl-5-hydroxynaphthalene-1-sulfonamide] | +
25 | COc1ccccc1CNS(=O)(=O)c1cccc2c(OS(=O)(=O)c3ccc(C)cc3)cccc12 [Compound 1-11, N-(2-Methoxybenzyl)-5-{[(4-methylphenyl)sulfonyl]oxy}naphthalene-1-sulfonamide] | ++
26 | Cc1ccc(S(=O)(=O)Oc2cccc3c(S(=O)(=O)NCc4ccc([N+](=O)[O-])cc4)cccc23)cc1 [Compound 1-5, N-(4-Nitrobenzyl)-5-{[(4-methylphenyl)sulfonyl]oxy}naphthalene-1-sulfonamide] | ++
27 | CC(C)(C)c1ccc(CNS(=O)(=O)c2cccc3cc(N)ccc23)cc1 [Compound 8-2, 6-Amino-N-[4-(tert-butyl)benzyl]naphthalene-1-sulfonamide] | +
28 | COc1cccc(CNS(=O)(=O)c2cccc3c(OS(=O)(=O)c4ccc(C)cc4)cccc23)c1 [Compound 1-12, N-(3-Methoxybenzyl)-5-{[(4-methylphenyl)sulfonyl]oxy}naphthalene-1-sulfonamide] | +
29 | COc1ccccc1CNS(=O)(=O)c1cccc2c(O)cccc12 [Compound 2-11, N-(2-Methoxylbenzyl)-5-hydroxynaphthalene-1-sulfonamide] | +
30 | Cc1ccc(S(=O)(=O)Oc2cccc3c(S(=O)(=O)NCc4cccc5ccccc45)cccc23)cc1 [Compound 1-19, N-(1-Naphthylmethyl)-5-{[(4-methylphenyl)sulfonyl]oxy}naphthalene-1-sulfonamide] | ++
31 | COc1cccc(CNS(=O)(=O)c2ccc3c(N)cccc3c2)c1OC [Compound 6-3, 5-Amino-N-(2,3-dimethoxybenzyl)naphthalene-2-sulfonamide] | +
32 | COc1cccc(CNS(=O)(=O)c2cccc3c(O)cccc23)c1OC [Compound 2-13, N-(2,3-Dimethoxylbenzyl)-5-hydroxynaphthalene-1-sulfonamide] | +
33 | Cc1ccc(S(=O)(=O)Oc2cccc3c(S(=O)(=O)NC(C)c4ccccc4)cccc23)cc1 (centres unmarked) [Compound 1-26, N-(1-Phenethyl)-5-{[(4-methylphenyl)sulfonyl]oxy}naphthalene-1-sulfonamide] | ++
34 | COc1cccc(CNS(=O)(=O)c2cccc3c(OS(=O)(=O)c4ccc(C)cc4)cccc23)c1OC [Compound 1-13, N-(2,3-Dimethoxybenzyl)-5-{[(4-methylphenyl)sulfonyl]oxy}naphthalene-1-sulfonamide] | +
35 | Cc1ccc(S(=O)(=O)Oc2cccc3c(S(=O)(=O)NCCc4ccccc4)cccc23)cc1 [Compound 1-25, N-(2-Phenethyl)-5-{[(4-methylphenyl)sulfonyl]oxy}naphthalene-1-sulfonamide] | +
